Details: 323.15 K, Liquid, Vibrating tube method

CCCC(=O)OCC(COC(=O)CCC)(COC(=O)CCC)COC(=O)CCC [pentaerythritol tetrabutyrate]
Details | mass density [kg/m3]
6544.6 kPa | 1029.7
6573.1 kPa | 1029.6
6601.4 kPa | 1029.8
6630.4 kPa | 1029.8
6664.6 kPa | 1029.8
6693.3 kPa | 1029.7
6722.9 kPa | 1029.8
6752.8 kPa | 1029.7
6788.3 kPa | 1029.8
6819.1 kPa | 1029.9
6850.5 kPa | 1029.9
6881.6 kPa | 1030
6918.6 kPa | 1030
6950.2 kPa | 1029.9
6982.9 kPa | 1030
7021.5 kPa | 1030
7051.8 kPa | 1029.9
7078.5 kPa | 1030
7111.5 kPa | 1030.1
7138.8 kPa | 1030.1
7165.9 kPa | 1030.2
7198.9 kPa | 1030.1
7227.1 kPa | 1030.2
7255.4 kPa | 1030.1
7284.6 kPa | 1030.2
7319.5 kPa | 1030.1
7348.8 kPa | 1030.3
7378.7 kPa | 1030.3
7408.9 kPa | 1030.2
7446.2 kPa | 1030.3
7476.6 kPa | 1030.3
7507.3 kPa | 1030.3
7538.2 kPa | 1030.3
7569.8 kPa | 1030.5
7607.4 kPa | 1030.5
7638.7 kPa | 1030.6
7671.1 kPa | 1030.6
7709.5 kPa | 1030.4
7742.2 kPa | 1030.6
7775.2 kPa | 1030.6
7809.6 kPa | 1030.6
7843.9 kPa | 1030.6
7885.3 kPa | 1030.6
7920.5 kPa | 1030.6
7953.8 kPa | 1030.7
7983 kPa | 1030.8
8018.4 kPa | 1030.7
8049.1 kPa | 1030.6
8080.2 kPa | 1030.7
8117.6 kPa | 1030.9
8149.2 kPa | 1030.7
8176.4 kPa | 1030.7
8203 kPa | 1030.9
8233.4 kPa | 1031
8258.9 kPa | 1030.8
8285.5 kPa | 1030.9
8312 kPa | 1031.1
8343.3 kPa | 1030.9
8369.3 kPa | 1030.9
8401.7 kPa | 1031.1
8428.3 kPa | 1031.1
8455.7 kPa | 1031
8482.6 kPa | 1031.1
8515.8 kPa | 1031.2
8543.4 kPa | 1031.1
8571.8 kPa | 1031.1
8605.3 kPa | 1031.2
8634.6 kPa | 1031.2
8664.9 kPa | 1031.3
8693.6 kPa | 1031.2
8722 kPa | 1031.2
8757 kPa | 1031.2
8785.7 kPa | 1031.2
8815.3 kPa | 1031.3
8851 kPa | 1031.3
8880.8 kPa | 1031.3
8916.7 kPa | 1031.4
8947.2 kPa | 1031.4
8977.7 kPa | 1031.5
9015.1 kPa | 1031.4
9048.4 kPa | 1031.5
9079.8 kPa | 1031.5
9105.3 kPa | 1031.6
9137.4 kPa | 1031.5
9181.7 kPa | 1031.6
9214.1 kPa | 1031.5
9239.9 kPa | 1031.6
9278.9 kPa | 1031.6
9312 kPa | 1031.6
9352.1 kPa | 1031.7
9391.1 kPa | 1031.5
9424.9 kPa | 1031.7
9459.7 kPa | 1031.8
9501.9 kPa | 1031.8
9536.7 kPa | 1031.9
9571.9 kPa | 1031.8
9607.4 kPa | 1031.8
9650.6 kPa | 1031.8
9687.7 kPa | 1031.8
9732.6 kPa | 1032
9765 kPa | 1032
9791.2 kPa | 1032
9822.2 kPa | 1031.9
9848.9 kPa | 1032.1
9875.6 kPa | 1032.1
9907.5 kPa | 1032
9935 kPa | 1032
9961.9 kPa | 1032.1
9989 kPa | 1032.1
10021 kPa | 1032.1
10048 kPa | 1032.1
10082 kPa | 1032.2
10110 kPa | 1032.1
10138 kPa | 1032.2
10166 kPa | 1032.2
10200 kPa | 1032.2
10228 kPa | 1032.2
10262 kPa | 1032.2
10292 kPa | 1032.4
10321 kPa | 1032.3
10356 kPa | 1032.4
10385 kPa | 1032.5
10415 kPa | 1032.5
10445 kPa | 1032.5
10481 kPa | 1032.4
10512 kPa | 1032.5
10542 kPa | 1032.4
10579 kPa | 1032.5
10610 kPa | 1032.6
10641 kPa | 1032.6
10672 kPa | 1032.6
10710 kPa | 1032.5
10742 kPa | 1032.6
10774 kPa | 1032.6
10806 kPa | 1032.7
10845 kPa | 1032.8
10877 kPa | 1032.7
10916 kPa | 1032.7
10948 kPa | 1032.7
10982 kPa | 1032.7
11022 kPa | 1032.7
11055 kPa | 1032.8
11089 kPa | 1032.8
11123 kPa | 1032.9
11165 kPa | 1032.9
11200 kPa | 1032.8
11242 kPa | 1032.9
11279 kPa | 1033
11316 kPa | 1033
11352 kPa | 1033
11384 kPa | 1033.1
11409 kPa | 1033
11434 kPa | 1033.1
11464 kPa | 1033
11489 kPa | 1033.1
11520 kPa | 1033.2
11545 kPa | 1033.1
11573 kPa | 1033.1
11598 kPa | 1033.2
11625 kPa | 1033.2
11655 kPa | 1033.2
11681 kPa | 1033.3
11713 kPa | 1033.3
11740 kPa | 1033.2
11766 kPa | 1033.3
11793 kPa | 1033.3
11825 kPa | 1033.4
11853 kPa | 1033.3
11880 kPa | 1033.5
11914 kPa | 1033.4
11944 kPa | 1033.4
11971 kPa | 1033.4
11999 kPa | 1033.4
12033 kPa | 1033.4
12061 kPa | 1033.5
12089 kPa | 1033.5
12122 kPa | 1033.6
12151 kPa | 1033.6
12180 kPa | 1033.6
12214 kPa | 1033.5
12243 kPa | 1033.7
12272 kPa | 1033.6
12367 kPa | 1033.8
12397 kPa | 1033.7
12432 kPa | 1033.7
12462 kPa | 1033.8
12499 kPa | 1033.8
12530 kPa | 1033.9
12555 kPa | 1033.8
12591 kPa | 1033.9
12623 kPa | 1033.9
12660 kPa | 1033.9
12691 kPa | 1033.9
12724 kPa | 1033.9
12762 kPa | 1033.9
12794 kPa | 1034.1
12826 kPa | 1033.9
12858 kPa | 1034
12897 kPa | 1034.1
12930 kPa | 1034.1
12969 kPa | 1034.1
13003 kPa | 1034.2
13037 kPa | 1034.3
13072 kPa | 1034.3
13115 kPa | 1034.3
13152 kPa | 1034.3
13184 kPa | 1034.2
13211 kPa | 1034.3
13233 kPa | 1034.3
13255 kPa | 1034.4
13281 kPa | 1034.4
13303 kPa | 1034.4
13326 kPa | 1034.4
13352 kPa | 1034.3
13375 kPa | 1034.4
13398 kPa | 1034.5
13420 kPa | 1034.5
13447 kPa | 1034.5
13470 kPa | 1034.5
13493 kPa | 1034.5
13520 kPa | 1034.5
13543 kPa | 1034.6
13570 kPa | 1034.5
13593 kPa | 1034.6
13616 kPa | 1034.6
13639 kPa | 1034.7
13667 kPa | 1034.5
13690 kPa | 1034.6
13718 kPa | 1034.6
13742 kPa | 1034.6
13766 kPa | 1034.7
13794 kPa | 1034.6
13819 kPa | 1034.6
13843 kPa | 1034.7
13867 kPa | 1034.7
13896 kPa | 1034.8
13920 kPa | 1034.7
13945 kPa | 1034.8
13974 kPa | 1034.9
13998 kPa | 1034.8
14027 kPa | 1034.8
14052 kPa | 1034.9
14215 kPa | 1035
14240 kPa | 1034.9
14265 kPa | 1034.9
14296 kPa | 1035.1
14322 kPa | 1035
14348 kPa | 1035.1
14379 kPa | 1035
14405 kPa | 1035
14431 kPa | 1035
14462 kPa | 1035.1
14490 kPa | 1035
14518 kPa | 1035.2
14544 kPa | 1035.1
14571 kPa | 1035.2
14603 kPa | 1035.1
14630 kPa | 1035.2
14658 kPa | 1035.3
14690 kPa | 1035.3
14717 kPa | 1035.3
14749 kPa | 1035.4
14805 kPa | 1035.4
14833 kPa | 1035.3
14867 kPa | 1035.3
14895 kPa | 1035.4
14923 kPa | 1035.5
14957 kPa | 1035.4
14986 kPa | 1035.4
15014 kPa | 1035.5
15048 kPa | 1035.6
15077 kPa | 1035.6
15105 kPa | 1035.6
15140 kPa | 1035.6
15169 kPa | 1035.7
15199 kPa | 1035.6
15229 kPa | 1035.5
15265 kPa | 1035.6
15294 kPa | 1035.6
15325 kPa | 1035.7
15360 kPa | 1035.7
15390 kPa | 1035.7
15421 kPa | 1035.8
15456 kPa | 1035.8
15487 kPa | 1035.8
15517 kPa | 1035.8
15554 kPa | 1035.8
15585 kPa | 1035.9
15616 kPa | 1035.9
15653 kPa | 1036
15685 kPa | 1035.9
15716 kPa | 1036
15748 kPa | 1036

Reference: the NIST ThermoML archive (doi:10.1021/je060271a)
